According to PubChem BioAssay (NCI):
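Five concentrations, 48 hours, 96-well plates. Abbreviation: GI50, concentration required for 50% inhibition of growth. TGI: concentration producing complete growth inhibition.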

Legend:
Assay in all cases: NCI tumour cell line growth inhibition, 48 h
OVCAR-3 ovarian = tested on: OVCAR-3 ovarian
HS 578T breast = tested on: HS 578T breast
UACC-62 melanoma = tested on: UACC-62 melanoma
BT-549 breast = tested on: BT-549 breast
HL-60(TB) leukemia = tested on: HL-60(TB) leukemia
CCRF-CEM leukemia = tested on: CCRF-CEM leukemia
K-562 leukemia = tested on: K-562 leukemia
U251 CNS = tested on: U251 CNS
SW-620 colon = tested on: SW-620 colon
HT29 colon = tested on: HT29 colon
KM12 colon = tested on: KM12 colon
LOX IMVI melanoma = tested on: LOX IMVI melanoma
EKVX NSCLC = tested on: EKVX NSCLC
NCI-H226 lung = tested on: NCI-H226 lung
SN12C renal = tested on: SN12C renal
HOP-62 NSCLC = tested on: HOP-62 NSCLC
SF-268 CNS = tested on: SF-268 CNS
RPMI-8226 leukemia = tested on: RPMI-8226 leukemia
SNB-19 CNS = tested on: SNB-19 CNS
UACC-257 melanoma = tested on: UACC-257 melanoma
PC-3 prostate = tested on: PC-3 prostate
DU-145 prostate = tested on: DU-145 prostate
NCI-H23 lung = tested on: NCI-H23 lung
NCI/ADR-RES ovarian = tested on: NCI/ADR-RES ovarian
MDA-MB-231 breast = tested on: MDA-MB-231 breast
T-47D breast = tested on: T-47D breast
SF-539 CNS = tested on: SF-539 CNS
HCC-2998 colon = tested on: HCC-2998 colon
OVCAR-4 ovarian = tested on: OVCAR-4 ovarian
IGROV1 ovarian = tested on: IGROV1 ovarian
HCT-15 colon = tested on: HCT-15 colon
MDA-MB-435 = tested on: MDA-MB-435
OVCAR-8 ovarian = tested on: OVCAR-8 ovarian
MCF7 breast = tested on: MCF7 breast
SF-295 CNS = tested on: SF-295 CNS
NCI-H460 lung = tested on: NCI-H460 lung
SK-MEL-5 melanoma = tested on: SK-MEL-5 melanoma
A498 renal = tested on: A498 renal
HCT-116 colon = tested on: HCT-116 colon
786-0 renal = tested on: 786-0 renal
NCI-H522 lung = tested on: NCI-H522 lung
A549 NSCLC = tested on: A549 NSCLC
UO-31 renal = tested on: UO-31 renal
CAKI-1 renal = tested on: CAKI-1 renal
OVCAR-5 ovarian = tested on: OVCAR-5 ovarian
SK-OV-3 ovarian = tested on: SK-OV-3 ovarian
SNB-75 CNS = tested on: SNB-75 CNS
TK-10 renal = tested on: TK-10 renal
M14 melanoma = tested on: M14 melanoma
HOP-92 NSCLC = tested on: HOP-92 NSCLC
MOLT-4 leukemia = tested on: MOLT-4 leukemia
SK-MEL-2 melanoma = tested on: SK-MEL-2 melanoma
SK-MEL-28 melanoma = tested on: SK-MEL-28 melanoma
MALME-3M melanoma = tested on: MALME-3M melanoma
COLO 205 colon = tested on: COLO 205 colon
RXF 393 renal = tested on: RXF 393 renal
SR leukemia = tested on: SR leukemia
ACHN renal = tested on: ACHN renal

O=C(O)c1ccc(CN2CCC(CN[C@@H]3C[C@H]3c3ccccc3)CC2)cc1
GI50 (OVCAR-3 ovarian): > 100 µM | TGI (OVCAR-3 ovarian): > 100 µM | GI50 (HS 578T breast): > 100 µM | TGI (HS 578T breast): > 100 µM | GI50 (UACC-62 melanoma): > 100 µM | TGI (UACC-62 melanoma): > 100 µM | GI50 (BT-549 breast): > 100 µM | TGI (BT-549 breast): > 100 µM | GI50 (HL-60(TB) leukemia): > 100 µM | TGI (HL-60(TB) leukemia): > 100 µM | GI50 (CCRF-CEM leukemia): > 100 µM | TGI (CCRF-CEM leukemia): > 100 µM | GI50 (K-562 leukemia): > 100 µM | TGI (K-562 leukemia): > 100 µM | GI50 (U251 CNS): > 100 µM | TGI (U251 CNS): > 100 µM | GI50 (SW-620 colon): > 100 µM | TGI (SW-620 colon): > 100 µM | GI50 (HT29 colon): > 100 µM | TGI (HT29 colon): > 100 µM | GI50 (KM12 colon): > 100 µM | TGI (KM12 colon): > 100 µM | GI50 (LOX IMVI melanoma): > 100 µM | TGI (LOX IMVI melanoma): > 100 µM | GI50 (EKVX NSCLC): > 100 µM | TGI (EKVX NSCLC): > 100 µM | GI50 (NCI-H226 lung): > 100 µM | TGI (NCI-H226 lung): > 100 µM | GI50 (SN12C renal): > 100 µM | TGI (SN12C renal): > 100 µM | GI50 (HOP-62 NSCLC): > 100 µM | TGI (HOP-62 NSCLC): > 100 µM | GI50 (SF-268 CNS): > 100 µM | TGI (SF-268 CNS): > 100 µM | GI50 (RPMI-8226 leukemia): > 100 µM | TGI (RPMI-8226 leukemia): > 100 µM | GI50 (SNB-19 CNS): > 100 µM | TGI (SNB-19 CNS): > 100 µM | GI50 (UACC-257 melanoma): > 100 µM | TGI (UACC-257 melanoma): > 100 µM | GI50 (PC-3 prostate): > 100 µM | TGI (PC-3 prostate): > 100 µM | GI50 (DU-145 prostate): > 100 µM | TGI (DU-145 prostate): > 100 µM | GI50 (NCI-H23 lung): > 100 µM | TGI (NCI-H23 lung): > 100 µM | GI50 (NCI/ADR-RES ovarian): > 100 µM | TGI (NCI/ADR-RES ovarian): > 100 µM | GI50 (MDA-MB-231 breast): > 100 µM | TGI (MDA-MB-231 breast): > 100 µM | GI50 (T-47D breast): > 100 µM | TGI (T-47D breast): > 100 µM | GI50 (SF-539 CNS): > 100 µM | TGI (SF-539 CNS): > 100 µM | GI50 (HCC-2998 colon): > 100 µM | TGI (HCC-2998 colon): > 100 µM | GI50 (OVCAR-4 ovarian): > 100 µM | TGI (OVCAR-4 ovarian): > 100 µM | GI50 (IGROV1 ovarian): > 100 µM | TGI (IGROV1 ovarian): > 100 µM | GI50 (HCT-15 colon): > 100 µM | TGI (HCT-15 colon): > 100 µM | GI50 (MDA-MB-435): > 100 µM | TGI (MDA-MB-435): > 100 µM | GI50 (OVCAR-8 ovarian): > 100 µM | TGI (OVCAR-8 ovarian): > 100 µM | GI50 (MCF7 breast): > 100 µM | TGI (MCF7 breast): > 100 µM | GI50 (SF-295 CNS): > 100 µM | TGI (SF-295 CNS): > 100 µM | GI50 (NCI-H460 lung): > 100 µM | TGI (NCI-H460 lung): > 100 µM | GI50 (SK-MEL-5 melanoma): > 100 µM | TGI (SK-MEL-5 melanoma): > 100 µM | GI50 (A498 renal): > 100 µM | TGI (A498 renal): > 100 µM | GI50 (HCT-116 colon): > 100 µM | TGI (HCT-116 colon): > 100 µM | GI50 (786-0 renal): > 100 µM | TGI (786-0 renal): > 100 µM | GI50 (NCI-H522 lung): > 100 µM | TGI (NCI-H522 lung): > 100 µM | GI50 (A549 NSCLC): > 100 µM | TGI (A549 NSCLC): > 100 µM | GI50 (UO-31 renal): > 100 µM | TGI (UO-31 renal): > 100 µM | GI50 (CAKI-1 renal): > 100 µM | TGI (CAKI-1 renal): > 100 µM | GI50 (OVCAR-5 ovarian): > 100 µM | TGI (OVCAR-5 ovarian): > 100 µM | GI50 (SK-OV-3 ovarian): > 100 µM | TGI (SK-OV-3 ovarian): > 100 µM | GI50 (SNB-75 CNS): > 100 µM | TGI (SNB-75 CNS): > 100 µM | GI50 (TK-10 renal): > 100 µM | TGI (TK-10 renal): > 100 µM | GI50 (M14 melanoma): > 100 µM | TGI (M14 melanoma): > 100 µM | GI50 (HOP-92 NSCLC): > 100 µM | TGI (HOP-92 NSCLC): > 100 µM | GI50 (MOLT-4 leukemia): > 100 µM | TGI (MOLT-4 leukemia): > 100 µM | GI50 (SK-MEL-2 melanoma): > 100 µM | TGI (SK-MEL-2 melanoma): > 100 µM | GI50 (SK-MEL-28 melanoma): > 100 µM | TGI (SK-MEL-28 melanoma): > 100 µM | GI50 (MALME-3M melanoma): > 100 µM | TGI (MALME-3M melanoma): > 100 µM | GI50 (COLO 205 colon): > 100 µM | TGI (COLO 205 colon): > 100 µM | GI50 (RXF 393 renal): > 100 µM | TGI (RXF 393 renal): > 100 µM | GI50 (SR leukemia): > 100 µM | TGI (SR leukemia): > 100 µM | GI50 (ACHN renal): > 100 µM | TGI (ACHN renal): > 100 µM
